Measurements taken from US20100322928A1, “METHODS OF DIAGNOSING, MONITORING TREATMENT AND TREATING SYSTEMIC LUPUS ERYTHEMATOSUS (SLE)” (Yeda Research and Development Co., Ltd., priority 2007, published 2010).
Entries after “also recorded” stand apart in the source; their conditions may differ. Marks after values point to notes of the source that are not given here.

Experiments:
[1] = tested on: (NZB×NZW)F1 mice with established SLE; test: ELISA for dsDNA-specific antibodies in sera of treated SLE-afflicted mice; type: in vivo; conditions: bled after termination of treatment, s.c. once a week for 10 weeks
Description: (§1) Treatment of (NZB×NZW)F1 mice with edratide. Female mice aged 6-7 months, with established SLE, were divided into groups (8-10 mice per group) and injected subcutaneously (s.c.) with edratide (25-50 μg) or vehicle only (Captisol®) once a week for 10 weeks. Proteinuria and anti-double stranded DNA (dsDNA) autoantibodies were monitored throughout this period.
Enzyme-linked immunosorbent assay (ELISA) for the detection of dsDNA-specific antibodies. Anti-dsDNA-specific antibodies were determined using lambda phage dsDNA as previously described (5).
(§2) Treatment with edratide ameliorates disease manifestations in (NZB×NZW)F1 mice with established SLE. SLE-afflicted female mice, aged 6-7 months, were treated with 10 weekly s.c. injections of edratide or vehicle (Captisol®) and followed for disease manifestations. One week after the treatment ended the mice were killed and their kidneys were evaluated for immune-complex deposits. The results of a representative experiment are presented in Table 1 below, which summarizes some clinical manifestations of the experimental mice.

[2] = tested on: splenocytes of SLE-afflicted (NZB×NZW)F1 mice; test: Affymetrix microarray of RNA from splenocytes of treated mice; type: in vivo
Description: Preparation of RNA. Using the RNA/DNA/protein isolation reagent (TRI Reagent®; Molecular Research Center, Cincinnati, Ohio), total RNA was isolated from spleen cells that were pooled (n=2-4 mice) from each experimental group of (NZB×NZW)F1 mice.
Microarray and statistics. RNA samples were hybridized to the mouse genome AffymetrixGeneChip® 430A2 (Affymetrix, Santa Clara, Calif.) array. R packages were used from the Bioconductor project (23). Initially, probe signal summarization, normalization, and background subtraction were performed using Robust Multi-array Averaging (RMA) (24) in affy package with default parameters. Then, the statistical test for differentially expressed genes was performed using Linear Models for Microarray (LIMMA) package (25), which allows for a better variance estimation by calculating the moderated t-statistic using empirical Bayesian techniques. Finally, genes were selected that were statistically significant with P value <0.05 in each biological comparison of interest separately.
Microarray analysis of immunocytes from SLE-afflicted mice. In an attempt to identify gene expression profiles characteristic of SLE and to gain an insight into the modified profile induced by edratide, DNA microarray technology was used on RNA preparations from splenocytes of SLE-afflicted (NZB×NZW)F1 mice treated with edratide or with vehicle only (as described above and in Table 1). […] Three independent in vivo experiments were successfully performed. The RNA obtained in each experiment was hybridized independently on the Affymetrix chips.

[3] = tested on: (NZB×NZW)F1 mice with established SLE; test: Immunohistology of kidney sections for immune-complex deposits; type: in vivo; conditions: graded 0 none, 1 low, 2 moderate, 3 high intensity, s.c. once a week for 10 weeks
Description: as §1
Immunohistology. For detection of immune-complex deposits, frozen kidney sections (6 μm) were air-dried and fixed in acetone. Sections were incubated with FITC-conjugated goat anti-mouse IgG (gamma-chain specific; Jackson ImmunoResearch Laboratories, Avondale, Pa.) for 30 minutes and were extensively washed with PBS. The intensity of immune-complex deposits was graded on a […]: 0, no deposits; 1, low-intensity deposits; 2, moderate-intensity deposits; 3, high-intensity deposits.
as §2

[4] = tested on: (NZB×NZW)F1 mice with established SLE; test: Proteinuria, semi-quantitative Albustix test; type: in vivo; conditions: at the end of the experiment; s.c. once a week for 10 weeks
Description: as §1
Proteinuria. Proteinuria was measured by a standard semi-quantitative test, using an Albustix kit (Bayer Diagnostics, Newbury, UK).
as §2

OX40L = test: Immunostaining of kidney sections for OX40L expression; type: in vivo; conditions: 6 edratide-treated mice; intense staining in all 5 vehicle-treated mice
Description: Immunohistochemistry of kidney sections. Frozen cryostat sections (6 μm) were air-dried and fixed in acetone. For detection of OX40 ligand (OX40L) expression, sections were incubated for 16 hours at room temperature with anti-OX40L monoclonal antibody (M−20; Santa Cruz Biotechnology, Santa Cruz, Calif.). FITC-conjugated mouse anti-goat IgG (Jackson ImmunoResearch Laboratories, West Grove, Pa.) was then added.
Immunostaining of kidneys of (NZB×NZW)F1 mice for OX40L expression. […] Immunohistological analysis of kidney sections from 5 SLE-afflicted vehicle-treated or 6 edratide-treated mice and 3 disease-free young mice was performed.

[5] = tested on: spleen cells of SLE-afflicted (NZB×NZW)F1 mice; test: Real-time RT-PCR of spleen cell mRNA from treated mice; type: in vivo; conditions: normalized to β-actin
Description: Real-time RT-PCR. Messenger RNA (mRNA) was analyzed by quantitative real-time RT-PCR using LightCycler (Roche Diagnostics, Mannheim, Germany). Total RNA was isolated from spleen cells pooled from each treatment group (n=2−4) of (NZB×NZW)F1 mice. To prepare cDNA, RNA was reverse-transcribed using Moloney murine leukemia virus (M-MLV) reverse transcriptase (Promega, Madison, Wis.). The resulting cDNA was subjected to real-time RT-PCR according to the manufacturer's instructions. Briefly, the reaction volume (20 μl) contained 3 mM MgCl2, LightCycler hot start DNA SYBR Green I mix (Roche), specific primer pairs, and 5 μl of cDNA. Conditions for PCR were as follows: 10 minutes at 95° C. followed by 35-50 cycles of 15 seconds at 95° C., 15 seconds at 60° C., and 15 seconds at 72° C. Primer sequences (forward and reverse, respectively) were used as follows:
β-actin levels were used for normalization in calculating the expression levels of all other genes.
Real-time RT-PCR analysis. […] These genes were chosen because they reportedly meet at least one of the following three criteria: involvement in SLE, functioning in lymphocytes, and expression in the kidney.

SLE-afflicted mice = conditions: cited from earlier work
[6] = SLE-afflicted mice, reference 5

Sequence: GYYWSWIRQPPGKGEEWIG (hCDR (Edratide) synthetic peptide) [synthetic peptide based on the CDR1 of the human monoclonal anti-DNA antibody bearing the common idiotype 16/6Id]
- Anti dsDNA antibodies (OD), Dilution 1:10 ([1]; serum dilution 1:10, mean ± spread): 1.46 ± 0.32 OD
- Anti dsDNA antibodies (OD), Dilution 1:250 ([1]; serum dilution 1:250): 0.48 ± 0.21 OD
- Fold difference in expression, edratide-treated (hCDR1) vs SLE mice: 1190003K14Rik ([2]; gene 1190003K14Rik, splenocytes): 2.4 fold
- Fold difference in expression, edratide-treated vs SLE mice: 2700022B06Rik ([2]; gene 2700022B06Rik, not statistically significant): −1.4^† fold
- Fold difference in expression, edratide-treated vs SLE mice: 5830484A20Rik ([2]; gene 5830484A20Rik, splenocytes, negative = reduction in signal): −3.0 fold
- Fold difference in expression, edratide-treated vs SLE mice: A130040M12Rik ([2]; gene A130040M12Rik, not statistically significant): 1.3^† fold
- Fold difference in expression, edratide-treated vs SLE mice: Ass1 ([2]; gene Ass1, not statistically significant): −1.2^† fold
- Fold difference in expression, edratide-treated (hCDR1) vs SLE mice: Camp ([2]; gene Camp, splenocytes): 2.8 fold
- Fold difference in expression, edratide-treated vs SLE mice: Cd8b1 ([2]; gene Cd8b1, not statistically significant): 2.0^† fold
- Fold difference in expression, edratide-treated (hCDR1) vs SLE mice: Ctsg ([2]; gene Ctsg, not statistically significant): 1.2^† fold
- Fold difference in expression, edratide-treated vs SLE mice: Cyp11a1 ([2]; gene Cyp11a1, not statistically significant): −1.8^† fold
- Fold difference in expression, edratide-treated vs SLE mice: Dhx9 ([2]; gene Dhx9, not statistically significant): −1.0^† fold
- Fold difference in expression, edratide-treated vs SLE mice: Fzd6 ([2]; gene Fzd6, splenocytes, negative = reduction in signal): −2.9 fold
- Fold difference in expression, edratide-treated vs SLE mice: Gpr132 ([2]; gene Gpr132, not statistically significant): −1.1^† fold
- Fold difference in expression, edratide-treated vs SLE mice: Hdgfrp3 ([2]; gene Hdgfrp3, not statistically significant): −1.7^† fold
- Fold difference in expression, edratide-treated vs SLE mice: IL5Rα ([2]; gene IL5Rα, splenocytes, negative = reduction in signal): −2.0 fold
- Fold difference in expression, edratide-treated vs SLE mice: LOC 545340 ([2]; gene LOC 545340, splenocytes, negative = reduction in signal): −2.7 fold
- Fold difference in expression, edratide-treated (hCDR1) vs SLE mice: Lcn ([2]; gene Lcn (Lipocalin 2), splenocytes): 2.9 fold
- Fold difference in expression, edratide-treated vs SLE mice: Lmo7 ([2]; gene Lmo7, splenocytes, negative = reduction in signal): −2.8 fold
- Fold difference in expression, edratide-treated (hCDR1) vs SLE mice: Ltf ([2]; gene Ltf, splenocytes): 3.2 fold
- Fold difference in expression, edratide-treated (hCDR1) vs SLE mice: Mpo ([2]; gene Mpo, not statistically significant): 1.5^† fold
- Fold difference in expression, edratide-treated (hCDR1) vs SLE mice: Ngp ([2]; gene Ngp, splenocytes): 2.5 fold
- Fold difference in expression, edratide-treated vs SLE mice: Nid1 ([2]; gene Nid1, splenocytes, negative = reduction in signal): −2.4 fold
- Fold difference in expression, edratide-treated vs SLE mice: Pigr ([2]; gene Pigr, not statistically significant): −1.4^† fold
- Fold difference in expression, edratide-treated (hCDR1) vs SLE mice: Prtn3 ([2]; gene Prtn3, not statistically significant): 1.3^† fold
- Fold difference in expression, edratide-treated vs SLE mice: Pstpip2 (second entry) ([2]; gene Pstpip2, entry with SLE fold 2.0, not statistically significant): −1.5^† fold
- Fold difference in expression, edratide-treated vs SLE mice: Pstpip2 (first entry) ([2]; gene Pstpip2, entry with SLE fold 2.2, not statistically significant): −1.9^† fold
- Fold difference in expression, edratide-treated vs SLE mice: Rnf184 ([2]; gene Rnf184, not statistically significant): 1.2^† fold
- Fold difference in expression, edratide-treated (hCDR1) vs SLE mice: S100a8 ([2]; gene S100a8, splenocytes): 2.4 fold
- Fold difference in expression, edratide-treated (hCDR1) vs SLE mice: S100a9 ([2]; gene S100a9, splenocytes): 2.4 fold
- Fold difference in expression, edratide-treated (hCDR1) vs SLE mice: Slfn ([2]; gene Slfn (Schlafen 4), splenocytes): 2.7 fold
- Fold difference in expression, edratide-treated (hCDR1) vs SLE mice: Tfpi ([2]; gene Tfpi, splenocytes): 2.2 fold
- Fold difference in expression, edratide-treated (hCDR1) vs SLE mice: Thbs1 ([2]; gene Thbs1, not statistically significant): 1.5^† fold
- Fold difference in expression, edratide-treated vs SLE mice: Tnfsf4 ([2]; gene Tnfsf4, splenocytes, negative = reduction in signal): −2.5 fold
- Fold difference in expression, edratide-treated vs SLE mice: Zbtb20 ([2]; gene Zbtb20, splenocytes, negative = reduction in signal): −2.2 fold
- Fold difference in expression, edratide-treated vs SLE mice: Unknown gene ([2]; gene title and symbol Unknown, SLE fold 1.9): −1.7 fold
- Number of genes down-regulated 2-fold or more in diseased mice that were up-regulated after treatment ([2]; of the 12 identified genes): 9 (75%) genes
- Number of genes up-regulated 2-fold or more in SLE-afflicted mice that were significantly down-regulated after treatment ([2]; of the 15 genes with an identified product): 9 (60%) genes
- Number of disease-altered genes affected by edratide and restored to levels similar to disease-free controls ([2]; of the 348 genes with altered expression in vehicle-treated diseased mice (22%)): 76 genes
- Intensity of ICD (immune-complex deposits) [3]: 1.33 ± 0.36
- Proteinuria [4]: 1.92 ± 0.96 g/L
- OX40L expression in kidney sections (immunostaining) (OX40L): very weak (in 2 mice and 1 mouse, respectively) or undetectable (in 4 and 2 mice, respectively); also recorded: down-regulated
- Real-time RT-PCR expression of Tfpi and S100a8 transcripts ([5]; genes down-regulated by the disease, FIG. 2B): up-regulated after edratide treatment to levels similar to those in the young controls
- Real-time RT-PCR expression of Tnfsf4, Il-5rα, Zbtb20 and Nid1 transcripts ([5]; genes up-regulated by the disease, FIG. 2A): reduced the expression of these genes to levels similar to those seen in the young mice
- Kidney disease (SLE-afflicted mice; (NZB×NZW)F1 mice, WO 02/067848): reduced kidney disease
- Immunosuppressive cytokine TGFβ (SLE-afflicted mice; [6]): up-regulated
- Secretion and expression of pathogenic cytokines (IFNγ, IL-1β, TNFα, IL-10) (SLE-afflicted mice; [6]): reduced secretion and expression
